Data reported in PubChem BioAssay AID248 (DTP/NCI, 2004).
Where “and” joins values, the source holds several entries; their conditions need not be identical. Equal entries are not always repeated. Inconclusive results and toxic doses are left out. Rule as the data show it: active = T/C of 150% or more; inactive = T/C below 125%.

Tested on: L1210 leukemia ip in BDF1 mice, survival T/C
Experiment: NCI In Vivo Anticancer Drug Screen. Data for tumor model L1210 Leukemia (intraperitoneal) in B6D2F1 (BDF1) mice
Details: endpoint: mean survival time, higher = longer survival
Summary of the method: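 Ratio derived from survival: compound-dosed mice over vehicle-dosed mice, all bearing a transplantable tumor.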

[1] = dose: 50.0 mg/kg/injection, schedule: Q01DX001 (ip), vehicle: saline
[2] = dose: 50.0 mg/kg/injection, schedule: Q01DX009 (ip), vehicle: Klucel (hydroxypropylcellulose) (HPC)
[3] = dose: 100.0 mg/kg/injection, schedule: Q01DX001 (ip), vehicle: saline
[4] = dose: 100.0 mg/kg/injection, schedule: Q01DX009 (ip), vehicle: Klucel (hydroxypropylcellulose) (HPC)
[5] = dose: 200.0 mg/kg/injection, schedule: Q01DX001 (ip), vehicle: saline
[6] = dose: 400.0 mg/kg/injection, schedule: Q01DX001 (ip), vehicle: saline
[7] = dose: 100.0 mg/kg/injection, schedule: Q01DX009 (ip), vehicle: saline with Tween-80
[8] = dose: 200.0 mg/kg/injection, schedule: Q01DX009 (ip), vehicle: saline with Tween-80
[9] = dose: 400.0 mg/kg/injection, schedule: Q01DX009 (ip), vehicle: saline with Tween-80
[10] = dose: 12.5 mg/kg/injection, schedule: Q01DX009 (ip), vehicle: water
[11] = dose: 25.0 mg/kg/injection, schedule: Q01DX009 (ip), vehicle: water
[12] = dose: 50.0 mg/kg/injection, schedule: Q01DX009 (ip), vehicle: water
[13] = dose: 100.0 mg/kg/injection, schedule: Q01DX009 (ip), vehicle: water
[14] = dose: 100.0 mg/kg/injection, schedule: Q01DX009 (ip), vehicle: saline
[15] = dose: 100.0 mg/kg/injection, schedule: Q04DX003 (ip), vehicle: saline
[16] = dose: 200.0 mg/kg/injection, schedule: Q04DX003 (ip), vehicle: saline
[17] = dose: 400.0 mg/kg/injection, schedule: Q04DX003 (ip), vehicle: saline
[18] = dose: 100.0 mg/kg/injection, schedule: Q04DX003 (ip), vehicle: Klucel (hydroxypropylcellulose) (HPC)
[19] = dose: 100.0 mg/kg/injection, schedule: Q04DX003 (ip), vehicle: saline with Tween-80
[20] = dose: 200.0 mg/kg/injection, schedule: Q04DX003 (ip), vehicle: saline with Tween-80
[21] = dose: 400.0 mg/kg/injection, schedule: Q04DX003 (ip), vehicle: saline with Tween-80
[22] = dose: 50.0 mg/kg/injection, schedule: Q04DX002 (ip), vehicle: saline with Tween-80
[23] = dose: 100.0 mg/kg/injection, schedule: Q04DX002 (ip), vehicle: saline with Tween-80

Measured: T/C

O=c1ccn(Cc2ccccc2)c(SCc2ccccc2)n1
inactive: [1] 105 % of control | [2] 102 % of control | [3] 109 % of control | [4] 95 % of control | [5] 91 % of control | dose: 200.0 mg/kg/injection, schedule: Q01DX009 (ip), vehicle: Klucel (hydroxypropylcellulose) (HPC) 98 % of control | [6] 105 % of control

ClCc1csc(-c2ccccc2)n1
inactive: [7] 115 % of control | [8] 94 % of control | [9] 92 % of control

O=C(O)CCC1(c2ccccc2)CCCC1=O (centres undefined)
inactive: [10] 101 % of control | [11] 104 % of control | [12] 98 % of control | [13] 95 % of control

C[N+]12C(=O)CC3OCC=C4C[N+]5(C)CCC6(c7ccccc71)C2C3C4CC65O (centres undefined)
inactive: dose: 9.5 mg/kg/injection, schedule: Q01DX001 (ip), vehicle: other 92 % of control | dose: 19.0 mg/kg/injection, schedule: Q01DX001 (ip), vehicle: other 101 % of control

CC(C)n1cc2c(N)ncnc2n1
inactive: dose: 50.0 mg/kg/injection, schedule: Q01DX009 (ip), vehicle: saline 117 % of control | [3] 96 % of control | [14] 104 % of control | [15] 103 % of control | [5] 104 % of control | [16] 108 % of control | [6] 100 % of control | [17] 100 % of control

O=C(CI)Nc1cc(C(F)(F)F)ccc1Cl
inactive: dose: 25.0 mg/kg/injection, schedule: Q04DX003 (ip), vehicle: Klucel (hydroxypropylcellulose) (HPC) 102 % of control | dose: 50.0 mg/kg/injection, schedule: Q04DX003 (ip), vehicle: Klucel (hydroxypropylcellulose) (HPC) 94 % of control

O=c1[nH]c(/C=C/c2ccc(Cl)cc2)nc(O)c1-c1ccc(Cl)cc1
inactive: [3] 104 % of control | [18] 102 % of control | [5] 98 % of control | dose: 200.0 mg/kg/injection, schedule: Q04DX003 (ip), vehicle: Klucel (hydroxypropylcellulose) (HPC) 96 % of control | [6] 93 % of control | dose: 400.0 mg/kg/injection, schedule: Q04DX003 (ip), vehicle: Klucel (hydroxypropylcellulose) (HPC) 98 % of control

CC(=O)OC1(C2(OC(C)=O)C=CC(=NS(=O)(=O)c3ccccc3)C=C2)C=CC(=NS(=O)(=O)c2ccccc2)C=C1 (centres undefined)
inactive: [7] 100 % of control | [19] 94 % of control | [8] 93 % of control | [20] 90 % of control | [9] 97 % of control | [21] 87 % of control

Nc1ncnc2nc[nH]c12.[Cl][Pt][Cl]
inactive: [13] 101 % of control | dose: 100.0 mg/kg/injection, schedule: Q04DX003 (ip), vehicle: water 94 % of control | dose: 200.0 mg/kg/injection, schedule: Q01DX009 (ip), vehicle: water 96 % of control | dose: 200.0 mg/kg/injection, schedule: Q04DX003 (ip), vehicle: water 87 % of control | dose: 400.0 mg/kg/injection, schedule: Q01DX009 (ip), vehicle: water 90 % of control | dose: 400.0 mg/kg/injection, schedule: Q04DX003 (ip), vehicle: water 94 % of control

CCOC(=O)C1CN(c2ccccc2)C(=O)C1=O (centres undefined)
inactive: [1] 104 % of control | [3] 98 % of control | [5] 96 % of control | [6] 98 % of control

CCCCCCCC(CCCCCC)CCCCCCC
inactive: [22] 89 % of control | [23] 110 % of control | dose: 200.0 mg/kg/injection, schedule: Q04DX002 (ip), vehicle: saline with Tween-80 103 % of control | dose: 400.0 mg/kg/injection, schedule: Q04DX002 (ip), vehicle: saline with Tween-80 106 % of control

CCOC(=O)NC(NC(=O)OCC)NC(=O)OCC
inactive: [14] 102 % of control | dose: 200.0 mg/kg/injection, schedule: Q01DX009 (ip), vehicle: saline 104 % of control | dose: 400.0 mg/kg/injection, schedule: Q01DX009 (ip), vehicle: saline 104 % of control

CC[n+]1ccc(Cc2ccc([N+](=O)[O-])cc2)cc1
inactive: dose: 25.0 mg/kg/injection, schedule: Q01DX009 (ip), vehicle: Klucel (hydroxypropylcellulose) (HPC) 102 % of control | [2] 95 % of control | [4] 100 % of control

Cc1ccccc1CC1c2[nH]c3ccccc3c2CCN1C (centres undefined)
inactive: dose: 75.0 mg/kg/injection, schedule: Q01DX001 (ip), vehicle: other 92 % of control | dose: 150.0 mg/kg/injection, schedule: Q01DX001 (ip), vehicle: other 86 % of control

Cc1ccc(-c2nc3ncncc3[nH]2)cc1[N+](=O)[O-]
inactive: dose: 32.5 mg/kg/injection, schedule: Q01DX001 (ip), vehicle: Klucel (hydroxypropylcellulose) (HPC) 100 % of control | dose: 65.0 mg/kg/injection, schedule: Q01DX001 (ip), vehicle: Klucel (hydroxypropylcellulose) (HPC) 102 % of control | dose: 130.0 mg/kg/injection, schedule: Q01DX001 (ip), vehicle: Klucel (hydroxypropylcellulose) (HPC) 97 % of control

CCOC(=O)c1cnc(SC)nc1NCc1ccc(Cl)c(Cl)c1
inactive: [19] 94 % of control | [20] 102 % of control | [21] 96 % of control

CCOc1ccc(NC(=S)N=Nc2c(O)[nH]c3c(Cl)cc(Cl)cc23)cc1
inactive: [15] 91 % of control | [16] 89 % of control | [17] 89 % of control

Cn1c(=O)n2n(c1=O)C1C=CC2C2C(Br)C(Br)C21 (centres undefined)
inactive: [7] 97 % of control | [19] 102 % of control | [8] 101 % of control | [20] 94 % of control | [9] 103 % of control | [21] 105 % of control

Cc1ccccc1Sc1ncnc2nc[nH]c12
inactive: [19] 91 % of control | [20] 102 % of control | [21] 101 % of control

c1ccc(Cn2ccnc2)cc1
inactive: dose: 3.12 mg/kg/injection, schedule: Q01DX009 (ip), vehicle: water 106 % of control | dose: 6.25 mg/kg/injection, schedule: Q01DX009 (ip), vehicle: water 117 % of control | [10] 107 % of control | [11] 104 % of control and 108 % of control | [12] 96 % of control | dose: 75.0 mg/kg/injection, schedule: Q01DX001 (ip), vehicle: saline 103 % of control

CCC(CO)(CO)C(=[N-])c1ccccc1O.CCC(CO)(CO)N=Cc1ccccc1O.[Co]
inactive: [1] 98 % of control | [3] 94 % of control | [5] 94 % of control

c1ccc2c(OCC3CO3)cccc2c1 (centres undefined)
inactive: dose: 50.0 mg/kg/injection, schedule: Q01DX001 (ip), vehicle: other 94 % of control | dose: 100.0 mg/kg/injection, schedule: Q01DX001 (ip), vehicle: other 94 % of control | dose: 200.0 mg/kg/injection, schedule: Q01DX001 (ip), vehicle: other 94 % of control | dose: 400.0 mg/kg/injection, schedule: Q01DX001 (ip), vehicle: other 111 % of control

ClCCOCCOc1ccccc1OCCOCCCl
inactive: [22] 100 % of control | [23] 90 % of control

COc1ccccc1OCCOCCN(C)C1CC(C)CCC1C(C)C (centres undefined)
inactive: [18] 98 % of control
